Values quoted from earlier work as cited in patent publication US20180185484A1, “PREPARATION AND USE OF PLATELET PRODUCTS” (Cerus Corporation, priority 2015, published 2018).

System: T lymphocytes
Conditions: treated platelet preparations, after photoactivation; Grass et al., 1998

Cc1oc2c(C)c3oc(=O)cc(C)c3cc2c1COCCN [amotosalen, 4′-(4-amino-2-oxa)butyl-4,5′,8-trimethylpsoralen]
reduction of viable T lymphocytes: greater than 5 logs
